The CheMixHub viscosity set
Where “and” joins values, the source holds several entries; their conditions need not be identical. Equal entries are not always repeated. ± gives the uncertainty stated by the source.

Assay: xn = mol fraction of the nth substance listed

COc1ccccc1 + CCC(C)O
viscosity [mPa·s], 101.33 kPa
Conditions	x1 = 0.0999	x1 = 0.2001	x1 = 0.3001	x1 = 0.3998	x1 = 0.5	x1 = 0.6001	x1 = 0.7	x1 = 0.8002	x1 = 0.9
303.15 K	1.759 ± 0.016	1.366 ± 0.012	1.172 ± 0.01	1.068 ± 0.01	1.001 ± 0.009	0.969 ± 0.009	0.951 ± 0.008	0.934 ± 0.008	0.918 ± 0.008
313.15 K	1.335 ± 0.012	1.068 ± 0.01	0.932 ± 0.009	0.862 ± 0.008	0.843 ± 0.008	0.831 ± 0.007	0.816 ± 0.007	0.803 ± 0.007	0.792 ± 0.007
323.15 K	1.023 ± 0.01	0.852 ± 0.008	0.769 ± 0.007	0.745 ± 0.007	0.739 ± 0.007	0.731 ± 0.007	0.723 ± 0.007	0.709 ± 0.006	0.698 ± 0.006

COc1ccccc1 + CCO
298.15 K, 101 kPa
Conditions	viscosity [mPa·s]
x1 = 0.07099	1.045 ± 0.01
x1 = 0.152	0.989 ± 0.01
x1 = 0.2432	0.947 ± 0.01
x1 = 0.3485	0.918 ± 0.0092
x1 = 0.4715	0.904 ± 0.0091
x1 = 0.6165	0.905 ± 0.0091
x1 = 0.7928	0.924 ± 0.0093

c1ccc2ccccc2c1 + c1ccccc1
Conditions	viscosity
293.15 K, 101 kPa, x1 = 0.006242	0.653 ± 0.023 mPa·s
293.15 K, 101 kPa, x1 = 0.01216	0.66 ± 0.023 mPa·s
293.15 K, 101 kPa, x1 = 0.02495	0.674 ± 0.024 mPa·s
298.15 K, 101 kPa, x1 = 0.051	0.6565 ± 0.017 mPa·s
298.15 K, 101 kPa, x1 = 0.1121	0.7261 ± 0.019 mPa·s
298.15 K, 101 kPa, x1 = 0.1538	0.7707 ± 0.02 mPa·s
298.15 K, 101 kPa, x1 = 0.1979	0.8263 ± 0.022 mPa·s
298.15 K, 101 kPa, x1 = 0.2398	0.8764 ± 0.023 mPa·s
298.15 K, 101 kPa, x1 = 0.2476	0.8712 ± 0.022 mPa·s
298.15 K, 101 kPa, x1 = 0.2693	0.9178 ± 0.024 mPa·s
298.15 K, 101.33 kPa, x1 = 0.0282	0.6309 ± 0.0063 mPa·s
298.15 K, 101.33 kPa, x1 = 0.069	0.6732 ± 0.0066 mPa·s
298.15 K, 101.33 kPa, x1 = 0.0898	0.6932 ± 0.0068 mPa·s
298.15 K, 101.33 kPa, x1 = 0.1341	0.7423 ± 0.0072 mPa·s
298.15 K, 101.33 kPa, x1 = 0.1587	0.7733 ± 0.0075 mPa·s
298.15 K, 101.33 kPa, x1 = 0.2089	0.833 ± 0.008 mPa·s
298.15 K, 101.33 kPa, x1 = 0.25	0.8712 ± 0.0087 mPa·s
298.15 K, 101.33 kPa, x1 = 0.2533	0.8891 ± 0.0085 mPa·s
303.15 K, 101 kPa, x1 = 0.2476	0.8077 ± 0.02 mPa·s
303.15 K, 101 kPa, x1 = 0.3593	0.9452 ± 0.024 mPa·s
303.15 K, 101.33 kPa, x1 = 0.0282	0.5882 ± 0.0059 mPa·s
303.15 K, 101.33 kPa, x1 = 0.069	0.6269 ± 0.0062 mPa·s
303.15 K, 101.33 kPa, x1 = 0.0898	0.6448 ± 0.0064 mPa·s
303.15 K, 101.33 kPa, x1 = 0.1341	0.6897 ± 0.0068 mPa·s
303.15 K, 101.33 kPa, x1 = 0.1587	0.7181 ± 0.007 mPa·s
303.15 K, 101.33 kPa, x1 = 0.2089	0.7723 ± 0.0075 mPa·s
303.15 K, 101.33 kPa, x1 = 0.25	0.8077 ± 0.0081 mPa·s and 0.8077 ± 0.083 mPa·s
303.15 K, 101.33 kPa, x1 = 0.2533	0.8222 ± 0.0079 mPa·s
303.15 K, 101.33 kPa, x1 = 0.26	0.8211 ± 0.085 mPa·s
303.15 K, 101.33 kPa, x1 = 0.33	0.874 ± 0.09 mPa·s
303.15 K, 101.33 kPa, x1 = 0.36	0.9452 ± 0.0095 mPa·s and 0.9452 ± 0.098 mPa·s
308.15 K, 101 kPa, x1 = 0.2476	0.7485 ± 0.019 mPa·s
308.15 K, 101 kPa, x1 = 0.3593	0.8742 ± 0.022 mPa·s
308.15 K, 101.33 kPa, x1 = 0.25	0.7485 ± 0.0075 mPa·s
308.15 K, 101.33 kPa, x1 = 0.36	0.8742 ± 0.0087 mPa·s
313.15 K, 101 kPa, x1 = 0.006242	0.501 ± 0.02 mPa·s
313.15 K, 101 kPa, x1 = 0.01216	0.505 ± 0.02 mPa·s
313.15 K, 101 kPa, x1 = 0.02495	0.514 ± 0.02 mPa·s
313.15 K, 101 kPa, x1 = 0.2476	0.6983 ± 0.018 mPa·s
313.15 K, 101 kPa, x1 = 0.3593	0.8115 ± 0.02 mPa·s
313.15 K, 101.33 kPa, x1 = 0.0282	0.516 ± 0.0053 mPa·s
313.15 K, 101.33 kPa, x1 = 0.069	0.5478 ± 0.0055 mPa·s
313.15 K, 101.33 kPa, x1 = 0.0898	0.5665 ± 0.0057 mPa·s
313.15 K, 101.33 kPa, x1 = 0.1341	0.6017 ± 0.006 mPa·s
313.15 K, 101.33 kPa, x1 = 0.1587	0.6263 ± 0.0062 mPa·s
313.15 K, 101.33 kPa, x1 = 0.2089	0.6698 ± 0.0066 mPa·s
313.15 K, 101.33 kPa, x1 = 0.25	0.6983 ± 0.007 mPa·s
313.15 K, 101.33 kPa, x1 = 0.2533	0.72 ± 0.007 mPa·s
313.15 K, 101.33 kPa, x1 = 0.36	0.8115 ± 0.0081 mPa·s
318.15 K, 101 kPa, x1 = 0.2476	0.654 ± 0.016 mPa·s
318.15 K, 101 kPa, x1 = 0.3593	0.7546 ± 0.019 mPa·s
318.15 K, 101.33 kPa, x1 = 0.25	0.654 ± 0.0065 mPa·s and 0.654 ± 0.068 mPa·s
318.15 K, 101.33 kPa, x1 = 0.26	0.666 ± 0.069 mPa·s
318.15 K, 101.33 kPa, x1 = 0.33	0.7066 ± 0.073 mPa·s
318.15 K, 101.33 kPa, x1 = 0.36	0.7546 ± 0.0075 mPa·s and 0.7546 ± 0.078 mPa·s
318.15 K, 101.33 kPa, x1 = 0.418	0.817 ± 0.084 mPa·s
323.15 K, 101 kPa, x1 = 0.009498	0.445 ± 0.018 mPa·s
323.15 K, 101 kPa, x1 = 0.02432	0.454 ± 0.018 mPa·s
323.15 K, 101 kPa, x1 = 0.02618	0.456 ± 0.019 mPa·s
323.15 K, 101.33 kPa, x1 = 0.0282	0.4564 ± 0.0048 mPa·s
323.15 K, 101.33 kPa, x1 = 0.069	0.4838 ± 0.005 mPa·s
323.15 K, 101.33 kPa, x1 = 0.0898	0.4993 ± 0.0051 mPa·s
323.15 K, 101.33 kPa, x1 = 0.1341	0.529 ± 0.0054 mPa·s
323.15 K, 101.33 kPa, x1 = 0.1587	0.5509 ± 0.0056 mPa·s
323.15 K, 101.33 kPa, x1 = 0.2089	0.5871 ± 0.0059 mPa·s
323.15 K, 101.33 kPa, x1 = 0.2533	0.6319 ± 0.0063 mPa·s

C1CCOC1 + CCCO
viscosity [mPa·s], 101 kPa
Conditions	298.15 K	303 K	313 K
x1 = 0.0992	–	1.22 ± 0.08	1.04 ± 0.07
x1 = 0.1999	–	1.08 ± 0.07	0.9 ± 0.06
x1 = 0.2846	–	1 ± 0.07	0.85 ± 0.06
x1 = 0.39	–	0.91 ± 0.06	0.77 ± 0.05
x1 = 0.5	0.7603 ± 0.02	–	–
x1 = 0.5146	–	0.8 ± 0.06	0.69 ± 0.05
x1 = 0.5918	–	0.73 ± 0.05	0.65 ± 0.05
x1 = 0.7012	–	0.64 ± 0.05	0.57 ± 0.04
x1 = 0.8028	–	0.57 ± 0.04	0.51 ± 0.04
x1 = 0.894	–	0.5 ± 0.04	0.47 ± 0.04
x1 = 0.9761	–	0.44 ± 0.03	0.42 ± 0.03
